Measurements as given in ChEMBL document CHEMBL1144896 (2003).

Key:
Format in all cases: functional
NCI-H1299 [1] = assay: hTERT-SEAP (Human telomerase reverse transcriptase-SEAP) activity in non-small cell lung cancer H1299 cell at 2.4 uM concentration and level of cell viability determined in MTT assay
NCI-H1299 [2] = assay: Compound was tested for human telomerase reverse transcriptase-SEAP (hTERT-SEAP) activity in non-small cell lung cancer H1299 cell at 24 uM concentration
BJ [3] = assay: Compound was tested for human telomerase reverse transcriptase-SEAP (hTERT-SEAP) activity in immortalized hTERT-BJI at 240.0 uM concentration
NCI-H1299 [4] = assay: hTERT-SEAP (Human telomerase reverse transcriptase-SEAP) activity in non-small cell lung cancer H1299 cell at 240.0 uM concentration and level of cell viability determined in MTT assay
BJ [5] = assay: hTERT-SEAP (Human telomerase reverse transcriptase-SEAP) activity in immortalized hTERT-BJI at 240.0 uM concentration and level of cell viability determined in MTT assay
BJ [6] = assay: Compound was tested for human telomerase reverse transcriptase-SEAP (hTERT-SEAP) activity in immortalized hTERT-BJI at 24 uM concentration
NCI-H1299 [7] = assay: Compound was tested for human telomerase reverse transcriptase-SEAP (hTERT-SEAP) activity in non-small cell lung cancer H1299 cell at 240.0 uM concentration
NCI-H1299 [8] = assay: Compound was tested for human telomerase reverse transcriptase-SEAP (hTERT-SEAP) activity in non-small cell lung cancer H1299 cell at 2.4 uM concentration
NCI-H1299 [9] = assay: hTERT-SEAP (Human telomerase reverse transcriptase-SEAP) activity in non-small cell lung cancer H1299 cell at 24 uM concentration and level of cell viability determined in MTT assay
BJ [10] = assay: Compound was tested for human telomerase reverse transcriptase-SEAP (hTERT-SEAP) activity in immortalized hTERT-BJI at 2.4 uM concentration
BJ [11] = assay: hTERT-SEAP (Human telomerase reverse transcriptase-SEAP) activity in immortalized hTERT-BJI at 24 uM concentration and level of cell viability determined in MTT assay
NCI-H1299 [12] = assay: (§1) hTERT-SEAP (Human telomerase reverse transcriptase-SEAP) activity in non-small cell lung cancer H1299 cell at 2.0 uM concentration and level of cell viability determined in MTT assay
NCI-H1299 [13] = assay: Compound was tested for human telomerase reverse transcriptase-SEAP (hTERT-SEAP) activity in non-small cell lung cancer H1299 cell at 200.0 uM concentration
NCI-H1299 [14] = assay: Compound was tested for human telomerase reverse transcriptase-SEAP (hTERT-SEAP) activity in non-small cell lung cancer H1299 cell at 2.0 uM concentration
NCI-H1299 [15] = assay: hTERT-SEAP (Human telomerase reverse transcriptase-SEAP) activity in non-small cell lung cancer H1299 cell at 200.0 uM concentration and level of cell viability determined in MTT assay
BJ [16] = assay: hTERT-SEAP (Human telomerase reverse transcriptase-SEAP) activity in immortalized hTERT-BJI at 20 uM concentration and level of cell viability determined in MTT assay
BJ [17] = assay: Compound was tested for human telomerase reverse transcriptase-SEAP (hTERT-SEAP) activity in immortalized hTERT-BJI at 20 uM concentration
BJ [18] = assay: hTERT-SEAP (Human telomerase reverse transcriptase-SEAP) activity in immortalized hTERT-BJI at 200.0 uM concentration and level of cell viability determined in MTT assay
NCI-H1299 [19] = assay: as §1; remark: listed apart in the source
NCI-H1299 [20] = assay: Compound was tested for human telomerase reverse transcriptase-SEAP (hTERT-SEAP) activity in non-small cell lung cancer H1299 cell at 20 uM concentration
NCI-H1299 [21] = assay: hTERT-SEAP (Human telomerase reverse transcriptase-SEAP) activity in non-small cell lung cancer H1299 cell at 20 uM concentration and level of cell viability determined in MTT assay
BJ [22] = assay: Compound was tested for human telomerase reverse transcriptase-SEAP (hTERT-SEAP) activity in immortalized hTERT-BJI at 200.0 uM concentration
BJ [23] = assay: Compound was tested for human telomerase reverse transcriptase-SEAP (hTERT-SEAP) activity in immortalized hTERT-BJI at 3.0 uM concentration
NCI-H1299 [24] = assay: hTERT-SEAP (Human telomerase reverse transcriptase-SEAP) activity in non-small cell lung cancer H1299 cell at 300.0 uM concentration and level of cell viability determined in MTT assay
NCI-H1299 [25] = assay: hTERT-SEAP (Human telomerase reverse transcriptase-SEAP) activity in non-small cell lung cancer H1299 cell at 30.0 uM concentration and level of cell viability determined in MTT assay
BJ [26] = assay: Compound was tested for human telomerase reverse transcriptase-SEAP (hTERT-SEAP) activity in immortalized hTERT-BJI at 30.0 uM concentration
BJ [27] = assay: Compound was tested for human telomerase reverse transcriptase-SEAP (hTERT-SEAP) activity in immortalized hTERT-BJI at 300.0 uM concentration
NCI-H1299 [28] = assay: Compound was tested for human telomerase reverse transcriptase-SEAP (hTERT-SEAP) activity in non-small cell lung cancer H1299 cell at 300.0 uM concentration
BJ [29] = assay: hTERT-SEAP (Human telomerase reverse transcriptase-SEAP) activity in immortalized hTERT-BJI at 300.0 uM concentration and level of cell viability determined in MTT assay
NCI-H1299 [30] = assay: Compound was tested for human telomerase reverse transcriptase-SEAP (hTERT-SEAP) activity in non-small cell lung cancer H1299 cell at 3.0 uM concentration
BJ [31] = assay: hTERT-SEAP (Human telomerase reverse transcriptase-SEAP) activity in immortalized hTERT-BJI at 30.0 uM concentration and level of cell viability determined in MTT assay
NCI-H1299 [32] = assay: Compound was tested for human telomerase reverse transcriptase-SEAP (hTERT-SEAP) activity in non-small cell lung cancer H1299 cell at 30.0 uM concentration
NCI-H1299 [33] = assay: hTERT-SEAP (Human telomerase reverse transcriptase-SEAP) activity in non-small cell lung cancer H1299 cell at 3.0 uM concentration and level of cell viability determined in MTT assay
BJ [34] = assay: hTERT-SEAP (Human telomerase reverse transcriptase-SEAP) activity in immortalized hTERT-BJI at 3.0 uM concentration and level of cell viability determined in MTT assay

Q: Which Relative viability (NCI-H1299 [1]) does the source give for O=C1c2cccc(SCC(O)CO)c2C(=O)c2cccc(SCC(O)CO)c21 (centres undefined) here?
A: 102%

Q: What about the “Relative SEAP activity” value (NCI-H1299 [2]) of the same molecule?
A: 90%

Q: What about the “Relative SEAP activity” value (BJ [3]) of the same molecule?
A: 142%

Q: What about the Relative viability (NCI-H1299 [4]) of the same molecule?
A: 83%

Q: And the Relative viability (BJ [5])?
A: 79%

Q: What about the “Relative SEAP activity” value (BJ [6]) of the same molecule?
A: 136%

Q: And the “Relative SEAP activity” value (NCI-H1299 [7])?
A: 81%

Q: What about the “Relative SEAP activity” value (NCI-H1299 [8]) of the same molecule?
A: 105%

Q: What about the Relative viability (NCI-H1299 [9]) of the same molecule?
A: 103%

Q: And the “Relative SEAP activity” value (BJ [10])?
A: 144%

Q: And the Relative viability (BJ [11])?
A: 86%

Q: What does the source list for O=C(CCc1ccccc1)Oc1cccc2c1C(=O)c1cccc(OC(=O)CCc3ccccc3)c1C2=O?
A: Relative viability (NCI-H1299 [12]): 111%; Relative SEAP activity (NCI-H1299 [13]): 89%; Relative SEAP activity (NCI-H1299 [14]): 94%; Relative viability (NCI-H1299 [15]): 54%; Relative viability (BJ [16]): 106%; Relative SEAP activity (BJ [17]): 124%; Relative viability (BJ [18]): 76%; Relative viability (NCI-H1299 [19]): 111%; Relative SEAP activity (NCI-H1299 [20]): 98%; Relative viability (NCI-H1299 [21]): 101%; Relative SEAP activity (BJ [22]): 110%

Q: With CCSc1cccc2c1C(=O)c1cccc(SCC)c1C2=O as the molecule, how does the “Relative SEAP activity” value (BJ [23]) read?
A: 109%

Q: What about the Relative viability (NCI-H1299 [24]) of the same molecule?
A: 25%

Q: What about the Relative viability (NCI-H1299 [25]) of the same molecule?
A: 44%

Q: And the “Relative SEAP activity” value (BJ [26])?
A: 110%

Q: What about the “Relative SEAP activity” value (BJ [27]) of the same molecule?
A: 104%

Q: What about the “Relative SEAP activity” value (NCI-H1299 [28]) of the same molecule?
A: 99%

Q: And the Relative viability (BJ [29])?
A: 34%

Q: What about the “Relative SEAP activity” value (NCI-H1299 [30]) of the same molecule?
A: 134%

Q: And the Relative viability (BJ [31])?
A: 98%

Q: And the “Relative SEAP activity” value (NCI-H1299 [32])?
A: 111%

Q: What about the Relative viability (NCI-H1299 [33]) of the same molecule?
A: 111%

Q: What about the Relative viability (BJ [34]) of the same molecule?
A: 112%
